Laboratory results reported in US7608619B2, “Substituted oxazole compounds with analgesic activity” (Gruenenthal GmbH, priority 2005, dated 2009).

Molecular target: T1, human μ-opiate receptor (Homo sapiens, UniProt P35372)
T1 construct: purchased Nen company, Zaventem, Belgium RB-HOM; host or cells: CHO-K1 cells (membrane preparation)
Assay: Affinity for the human μ-opiate receptor ([3H]-naloxone displacement, SPA, CHO-K1 membrane preparation)
Settings: test substance 1 μmole/l; displacement of 1 nmole/l [3H]-naloxone; percentage inhibition of the specific binding
Description: Method for Determining the Affinity for the Human μ-Opiate Receptor
The receptor affinity for the human μ-opiate receptor is determined in a homogeneous batch in microtiter plates. For this purpose dilution series of the substances to be tested are incubated for 90 minutes at room temperature with a receptor membrane preparation (15-40 μg protein/250 μl incubation batch) of CHO-K1 cells, which express the human μ-opiate receptor (RB-HOM receptor membrane preparation from the Nen company, Zaventem, Belgium), in the presence of 1 nmole/l of the radioactive ligand [^3H]-naloxone (NET719, Nen company, Zaventem, Belgium) and 1 mg WGA-SPA beads (wheat germ agglutinin SPA beads from Amersham/Pharmacia, Freiburg, Germany) in a total volume of 250 μl. 50 mmole/l of Tris-HCl supplemented with 0.05% sodium azide and with 0.06% bovine serum albumin is used as incubation buffer. In order to determine the non-specific binding, 25 μmole/l of naloxone is additionally added. After the end of the 90 minutes' incubation time the microtiter plates are centrifuged for 20 minutes at 1000 g and the radioactivity is measured in a beta counter (Microbeta-Trilux, PerkinElmer Wallac, Freiburg, Germany). The percentage displacement of the radioactive ligand from its binding to the human μ-opiate receptor at a concentration of the test substances of 1 μmole/l is determined and is given as percentage inhibition of the specific binding.

T1 sequence (P35372 whole entry): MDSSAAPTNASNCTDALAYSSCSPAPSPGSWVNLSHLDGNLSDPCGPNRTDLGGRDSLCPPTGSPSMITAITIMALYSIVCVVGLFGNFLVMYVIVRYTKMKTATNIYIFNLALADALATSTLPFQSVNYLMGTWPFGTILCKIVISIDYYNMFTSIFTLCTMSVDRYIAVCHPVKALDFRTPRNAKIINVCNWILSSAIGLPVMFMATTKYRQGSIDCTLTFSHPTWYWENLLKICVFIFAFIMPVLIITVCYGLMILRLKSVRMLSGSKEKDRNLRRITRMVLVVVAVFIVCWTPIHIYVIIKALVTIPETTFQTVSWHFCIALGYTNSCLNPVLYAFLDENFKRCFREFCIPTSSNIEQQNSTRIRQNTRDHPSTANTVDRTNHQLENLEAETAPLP

| Compound | μ-opioid receptor, % inhibition [1 μM] [%] |
| --- | --- |
| CN(CCc1ccccc1)c1oc(C(C2CCC(C(c3ccc(Cl)cc3)N(C)C)CC2)N(C)c2ccccc2)nc1Cc1ccccc1 (stereo not shown) [compound 43, {4-benzyl-2-[{4-[(4-chlorophenyl)-dimethylaminomethyl]-cyclohexyl}-(methylphenylamine)-methyl]-oxazol-5-yl}-methylphenethylamine] | 72 |

Same assay, conditions: test substance 1 μmole/l; displacement of 1 nmole/l [3H]-naloxone; percentage inhibition of the specific binding; read-out: μ-opioid receptor, % inhibition [1 μM]

| Compound | inhibition at 1 µM [%] |
| --- | --- |
| CCN(CC)c1oc(C(C2CCC(C(c3ccc(Cl)cc3)N(C)C)CC2)N2CCN(Cc3ccccc3)CC2)nc1Cc1ccccc1 (stereo not shown) [compound 44, [4-benzyl-2-((4-benzylpiperazin-1-yl)-{4-[(4-chlorophenyl)-dimethylaminomethyl]-cyclohexyl}-methyl)-oxazol-5-yl]-diethylamine] | 67 |
| CC1CC(C)CN(c2oc(C(C3CCC(C(c4cccs4)N(C)C)CC3)N3CCCCC3)nc2Cc2ccccc2)C1 (stereo not shown) [compound 45, [(4-{[4-benzyl-5-(3,5-dimethylpiperidin-1-yl)-oxazol-2-yl]-piperidin-1-yl-methyl}-cyclohexyl)-thiophen-2-yl-methyl]-dimethylamine] | 71 |
| CN(CCc1ccccc1)c1oc(C(C2CCC(C(c3cccs3)N(C)C)CC2)N2CCCCC2)nc1Cc1ccccc1 (stereo not shown) [compound 46, (4-benzyl-2-{[4-(dimethylaminothiophen-2-yl-methyl)-cyclohexyl]-piperidin-1-yl-methyl}-oxazol-5-yl)-methylphenethylamine] | 80 |
| CCN(CC)c1oc(C(C2CCC(C(c3cccs3)N(C)C)CC2)N2CCCCC2)nc1Cc1ccccc1 (stereo not shown) [compound 47, (4-benzyl-2-{[4-(dimethylamino-thiophen-2-yl-methyl)-cyclohexyl]-piperidin-1-yl-methyl}-oxazol-5-yl)-diethylamine] | 73 |
| CN(C)C(c1cccs1)C1CCC(C(c2nc(Cc3ccccc3)c(N3CCSCC3)o2)N2CCCCC2)CC1 (stereo not shown) [compound 48, ({4-[(4-benzyl-5-thiomorpholin-4-yl-oxazol-2-yl)-piperidin-1-yl-methyl]-cyclohexyl}-thiophen-2-yl-methyl)-dimethylamine] | 60 |
| CCN(CC)C(c1nc(Cc2ccccc2)c(N(C)CCc2ccccc2)o1)C1CCC(C(c2cccs2)N(C)C)CC1 (stereo not shown) [compound 49, (4-benzyl-2-{diethylamino-[4-(dimethylamino-thiophen-2-yl-methyl)-cyclohexyl]-methyl}-oxazol-5-yl)-methylphenethylamine] | 90 |
| CCN(CC)c1oc(C(C2CCC(C(c3cccs3)N(C)C)CC2)N(CC)CC)nc1Cc1ccccc1 (stereo not shown) [compound 50, (4-benzyl-2-{diethylamino-[4-(dimethylaminothiophen-2-yl-methyl)-cyclohexyl]-methyl}-oxazol-5-yl)-diethylamine] | 83 |
| CCN(CC)C(c1nc(Cc2ccccc2)c(N2CCCC(C)C2)o1)C1CCC(C(c2cccs2)N(C)C)CC1 (stereo not shown) [compound 51, {[4-benzyl-5-(3-methylpiperidin-1-yl)-oxazol-2-yl]-[4-(dimethylamino-thiophen-2-yl-methyl)-cyclohexyl]-methyl}-diethylamine] | 100 |
| CN(C)C(c1cccs1)C1CCC(C(c2nc(Cc3ccccc3)c(N3CCSCC3)o2)N(C)c2ccccc2)CC1 (stereo not shown) [compound 52, {(4-benzyl-5-thiomorpholin-4-yl-oxazol-2-yl)-[4-(dimethylaminothiophen-2-yl-methyl)-cyclohexyl]-methyl}-methylphenylamine] | 92 |
| CC1CC(C)CN(c2oc(C(C3CCC(C(c4cccs4)N(C)C)CC3)N3CCN(Cc4ccccc4)CC3)nc2Cc2ccccc2)C1 (stereo not shown) [compound 53, ({4-[[4-benzyl-5-(3,5-dimethylpiperidin-1-yl)-oxazol-2-yl]-(4-benzyl-piperazin-1-yl)-methyl]-cyclohexyl}-thiophen-2-yl-methyl)-dimethylamine] | 86 |
| CN(CCc1ccccc1)c1oc(C(C2CCC(C(c3cccs3)N(C)C)CC2)N2CCN(Cc3ccccc3)CC2)nc1Cc1ccccc1 (stereo not shown) [compound 54, (4-benzyl-2-{(4-benzyl-piperazin-1-yl)-[4-(dimethylaminothiophen-2-yl-methyl)-cyclohexyl]-methyl}-oxazol-5-yl)-methyl-phenethylamine] | 74 |
| CN(C)C(c1cccs1)C1CCC(C(c2nc(Cc3ccccc3)c(N3CCSCC3)o2)N2CCN(Cc3ccccc3)CC2)CC1 (stereo not shown) [compound 55, ({4-[(4-benzylpiperazin-1-yl)-(4-benzyl-5-thiomorpholin-4-yl-oxazol-2-yl)-methyl]-cyclohexyl}-thiophen-2-yl-methyl)-dimethylamine] | 63 |
| CN(C)C(c1ccc(Cl)cc1)C1CCC(CC(c2nc(Cc3ccccc3)c(N3CCN(Cc4ccccc4)CC3)o2)N2CCCCC2)CC1 (stereo not shown) [compound 56, [(4-{2-[4-benzyl-5-(4-benzyl-piperazin-1-yl)-oxazol-2-yl]-2-piperidin-1-yl-ethyl}-cyclohexyl)-(4-chlorophenyl)-methyl]-dimethylamine] | 62 |
| CC1CCN(c2oc(C(CC3CCC(C(c4ccc(Cl)cc4)N(C)C)CC3)N3CCCCC3)nc2Cc2ccccc2)CC1 (stereo not shown) [compound 57, [(4-{2-[4-benzyl-5-(4-methylpiperidin-1-yl)-oxazol-2-yl]-2-piperidin-1-yl-ethyl}-cyclohexyl)-(4-chlorophenyl)-methyl]-dimethylamine] | 64 |
| CN(Cc1ccccc1)c1oc(C(CC2CCC(C(c3ccc(Cl)cc3)N(C)C)CC2)N2CCCCC2)nc1Cc1ccccc1 (stereo not shown) [compound 58, Benzyl-[4-benzyl-2-(2-{4-[(4-chlorophenyl)-dimethylaminomethyl]-cyclohexyl}-1-piperidin-1-yl-ethyl)-oxazol-5-yl]-methylamine] | 73 |
| CCN(CC)C(CC1CCC(C(c2ccc(Cl)cc2)N(C)C)CC1)c1nc(Cc2ccccc2)c(N2CCC(Cc3ccccc3)CC2)o1 (stereo not shown) [compound 59, (1-[4-benzyl-5-(4-benzylpiperidin-1-yl)-oxazol-2-yl]-2-{4-[(4-chlorophenyl)-dimethylaminomethyl]-cyclohexyl}-ethyl)-diethylamine] | 60 |
| CCN(CC)C(CC1CCC(C(c2ccc(Cl)cc2)N(C)C)CC1)c1nc(Cc2ccccc2)c(N2CCC(C)CC2)o1 (stereo not shown) [compound 60, (1-[4-benzyl-5-(4-methylpiperidin-1-yl)-oxazol-2-yl]-2-{4-[(4-chlorophenyl)-dimethylaminomethyl]-cyclohexyl}-ethyl)-diethylamine] | 68 |
| CCN(CC)C(CC1CCC(C(c2ccc(Cl)cc2)N(C)C)CC1)c1nc(Cc2ccccc2)c(N(C)Cc2ccccc2)o1 (stereo not shown) [compound 61, Benzyl-[4-benzyl-2-(2-{4-[(4-chlorophenyl)-dimethylaminomethyl]-cyclohexyl}-1-diethylamino-ethyl)-oxazol-5-yl]-methylamine] | 76 |
| CN(C)C(c1ccc(Cl)cc1)C1CCC(CC(c2nc(Cc3ccccc3)c(N3CCC(Cc4ccccc4)CC3)o2)N2CCN(Cc3ccccc3)CC2)CC1 (stereo not shown) [compound 62, [{4-[2-[4-benzyl-5-(4-benzyl-piperidin-1-yl)-oxazol-2-yl]-2-(4-benzyl-piperazin-1-yl)-ethyl]-cyclohexyl}-(4-chlorophenyl)-methyl]-dimethylamine] | 87 |
| CN(C)C(c1ccc(Cl)cc1)C1CCC(CC(c2nc(Cc3ccccc3)c(N3CCN(Cc4ccccc4)CC3)o2)N2CCN(Cc3ccccc3)CC2)CC1 (stereo not shown) [compound 63, [{4-[2-[4-benzyl-5-(4-benzylpiperazin-1-yl)-oxazol-2-yl]-2-(4-benzyl-piperazin-1-yl)-ethyl]-cyclohexyl}-(4-chlorophenyl)-methyl]-dimethylamine] | 78 |
| CC1CCN(c2oc(C(CC3CCC(C(c4ccc(Cl)cc4)N(C)C)CC3)N3CCN(Cc4ccccc4)CC3)nc2Cc2ccccc2)CC1 (stereo not shown) [compound 64, [{4-[2-[4-benzyl-5-(4-methylpiperidin-1-yl)-oxazol-2-yl]-2-(4-benzyl-piperazin-1-yl)-ethyl]-cyclohexyl}-(4-chlorophenyl)-methyl]-dimethylamine] | 69 |
| CC1CCN(c2oc(C(CC3CCC(C(c4ccc(F)cc4)N(C)C)CC3)N3CCCCC3)nc2Cc2ccccc2)CC1 (stereo not shown) [compound 65, [(4-{2-[4-benzyl-5-(4-methylpiperidin-1-yl)-oxazol-2-yl]-2-piperidin-1-yl-ethyl}-cyclohexyl)-(4-fluorophenyl)-methyl]-dimethylamine] | 61 |
| CN(Cc1ccccc1)c1oc(C(CC2CCC(C(c3ccc(F)cc3)N(C)C)CC2)N2CCCCC2)nc1Cc1ccccc1 (stereo not shown) [compound 66, Benzyl-[4-benzyl-2-(2-{4-[dimethylamino-(4-fluorophenyl)-methyl]-cyclohexyl}-1-piperidin-1-yl-ethyl)-oxazol-5-yl]-methylamine] | 65 |
| CCN(CC)C(CC1CCC(C(c2ccc(F)cc2)N(C)C)CC1)c1nc(Cc2ccccc2)c(N2CCC(Cc3ccccc3)CC2)o1 (stereo not shown) [compound 67, (1-[4-benzyl-5-(4-benzyl-piperidin-1-yl)-oxazol-2-yl]-2-{4-[dimethylamino-(4-fluorophenyl)-methyl]-cyclohexyl}-ethyl)-diethylamine] | 64 |
